Assays:
MDR1 mRNA = MDR1 mRNA expression by Northern blotting in MDR 3T3 cells; type: cell-based, human; settings: for MDR1 mRNA Level (arbitrary units) / % Control (MDR1 mRNA): oligonucleotide 1 μm, 24 hours, with Lipofectin; for MDR1 mRNA Level (arbitrary units): serum free medium; for % Control (MDR1 mRNA): control = untreated cells
Experimental: NIH 3T3 cells transfected with a plasmid containing the human MDR1 gene (pSK1 MDR) have been previously described (Kane et al., Gene, 1989, 84, 439). These cells have proven to be useful models for the study of multi-drug resistance phenomena. Cells were grown in DMEM media containing 10% fetal bovine serum (FBS) and 60 ng/ml colchicine in an atmosphere of 95% air, 5% CO2.
Cells were grown in […] flasks.
To measure MDR1 mRNA expression by Northern blotting, total cellular RNA was isolated by lysis in 4M guanidium isothiocyanate followed by a cesium chloride gradient, and the RNA was resolved on 1.2% agarose gels containing 1.2% formaldehyde and transferred to nitrocellulose membranes (Dean et al., J. Biol. Chem., 1994, 269, 16416). The blots were hybridized with a ^32P radiolabeled human MDR1 cDNA probe. The MDR1 cDNA probe was isolated by performing a polymerase chain reaction on the pSK1 MDR plasmid, as described previously (Alahari et al., Nucl. Acids Res., 1993, 21, 4079). The following oligonucleotide primers were used for PCR: […]
The resulting fragment was checked on an agarose gel and was radiolabeled with ^32P-dCTP using a commercially available random primer labeling kit (Amersham, Arlington Heights, Ill.) according to the manufacturer's instructions. The filters were hybridized overnight in hybridization buffer (25 mM KPO4, pH 7.4; 5×SSC; 5×Denhardt's solution, 100 ug/ml Salmon sperm DNA and 50% formamide) (Alahari et al., Nucl. Acids Res., 1993, 21, 4079). This was followed by two washes with 1×SSC, 0.1% SDS and two washes with 0.25×SSC, 0.1% SDS. Hybridizing bands were visualized by exposure to X-OMAT AR film and quantitated using a PhosphorImager™ (Molecular Dynamics, Sunnyvale, Calif.). To confirm equal loading of RNA, the blots were stripped and reprobed with a ^32P-labeled beta-actin probe (Clontech, Palo Alto, Calif).
In initial experiments, the MDR 3T3 cells were exposed to 1.0 μm concentrations of several different antisense oligonucleotides, or control oligonucleotides, in the presence of 20 ug/ml LIPOFECTIN® for 24 hours. […] NIH 3T3 cells transfected with pSK1 MDR plasmid were grown to 90% confluence and treated with oligonucleotide (1 μm) for 24 hours in the presence of Lipofectin® in serum free medium. Total RNA was isolated and fractionated on agarose formaldehyde gels and blotted onto nitrocellulose membranes. These membranes were probed with a ^32P radiolabeled 1.0 kb MDR1 cDNA, and then stripped and reprobed with a ^32P radiolabeled beta-actin cDNA probe to confirm equal loading of RNA, allowing the levels of MDR1 transcripts to be normalized with regard to the beta-actin bands. Transcript levels were quantitated using a PHOSPHORIMAGER™ (Molecular Dynamics, Sunnyvale, Calif.); the values are expressed in arbitrary units (the beta-actin transcripts were essentially constant).

P-glycoprotein = P-glycoprotein expression by Western blotting in MDR 3T3 cells; type: cell-based, human; settings: maximum only after 72 hours exposure
Experimental: Transfected MDR NIH 3T3 cells were grown and treated with oligonucleotides as described in Example (9)(B). In order to measure P-glycoprotein expression by Western blotting, cells were seeded in 60 mm dishes at 1.2×10^6 per dish and incubated for 24 hours in serum containing medium. The cells were treated with the oligomers for various times in serum free medium as described above. Cells were then extracted in lysis buffer (20 mM Tris, pH 7.5, 2 mM EDTA, 500 mM EGTA, 2 mM PMSF, 1 mM DTT, aprotonin (10 ug/ml), 0.5% Triton-X) and sonicated briefly. The lysate was spun in a microfuge tube for 20 minutes at 4° C. and the resulting supernatant was checked for protein content. Equal amounts of protein (usually 20 ug) were mixed with SDS sample buffer and boiled. Protein samples were separated by 8% SDS PAGE and the resolved proteins were electrophoretically transferred onto polyvinyllidene fluoride membranes (Millipore, Bedford, Mass.). The membranes were blocked (with 3% BSA, 2% non fat dry milk in PBS) and then treated with 2 ug/ml C219 anti-P-glycoprotein antibody (Signet, Dedham, Mass.). After washing three times with 0.1% Tween 20, the membranes were incubated with rabbit anti-mouse antibody (Cappel, Durham, N.C.). Immunoreactive proteins were visualized either by ECL (Enhanced Chemiluminescence, Amersham, Arlington Heights, Ill.) or with ^125I secondary antibodies.

complementary DNA = experiment: Melting analysis (Tm) of 5-LO antisense sequence oligomers against complementary DNA; type: binding; settings: 4 μM each strand, 100 mM NaCl, 10 mM Phosphate, 0.1 mM EDTA, pH 7.0
Experimental: (§1) The relative ability of oligonucleotides to bind to their complementary strand is compared by determining the melting temperature of the hybridization complex of the oligonucleotide and its complementary strand. The melting temperature (Tm), a characteristic physical property of double helices, denotes the temperature in degrees centigrade at which 50% helical versus coil (un-hybridized) forms are present. Tm is measured by using the UV spectrum to determine the formation and breakdown (melting) of hybridization. Base stacking, which occurs during hybridization, is accompanied by a reduction in UV absorption (hypochromicity). Consequently, […]. The higher the Tm, the greater the strength of the binding of the strands. Non-Watson-Crick base pairing has a strong destabilizing effect on the Tm. Consequently, absolute fidelity of base pairing is necessary to have optimal binding of an antisense oligonucleotide to its targeted RNA.
(§2) The test oligonucleotides (either the phosphodiester, phosphorothioate, cholic acid conjugated phosphodiester, cholic acid conjugated phosphorothioate or 5′-aminolink intermediate phosphodiester or phosphorothioate oligonucleotides of the invention or otherwise) and either the complementary DNA or RNA oligonucleotides were incubated at a standard concentration of 4 μM for each oligonucleotide in buffer (100 mM NaCl, 10 mM Na-phosphate, pH 7.0, 0.1 mM EDTA). Samples were heated to 90 degrees C. and the initial absorbance taken using a Guilford Response II spectro-photometer (Corning, Inc., Corning, N.Y.). Samples were then slowly cooled to 15° C. and then the change in absorbance at 260 nm was monitored during the heat denaturation procedure. The temperature was elevated 1 degree/absorbance reading and the denaturation profile analyzed by taking the 1st derivative of the melting curve. Data was also analyzed using a two-state linear regression analysis to determine the Tm's. The results of these tests are shown in Table 3 as are the HPLC retention times of certain of the test compounds.

complementary RNA = experiment: Melting analysis (Tm) of 5-LO antisense sequence oligomers against complementary RNA; type: binding; settings: 4 μM each strand, 100 mM NaCl, 10 mM Phosphate, 0.1 mM EDTA, pH 7.0
Experimental: as §1, §2

[1] = Nuclease stability in HeLa cytoplasmic/nuclear extracts; type: in vitro ADME; settings: cell extract diluted 1.4 times; oligonucleotide 20 μM
Experimental: The nuclease stability of Oligomer 51 and the conjugate were tested against Oligomer 50 in HeLa cytoplasmic/nuclear extracts. The cell extract was diluted 1.4 times. The final concentration of oligonucleotide was 20 μM. The half lives of the oligonucleotides were as follows: Oligomer 50, 1.0 hrs.; Oligomer 51, 3.5 hrs.; and Conjugate 1, 3.6 hrs.

mouse ICAM-1 mRNA = experiment: ICAM-1 mRNA levels in LPS-treated mice (Northern analysis); type: in vivo; settings: liver; 30 mg/kg i.v. 24 and 2 hours prior to LPS
Experimental: Mice were treated with oligonucleotides and examined as follows. […] Then, to induce ICAM-1 expression, bacterial lipopolysaccharide (LPS) was injected into the mice. After 2 hours, the mice were sacrificed, and particular organs, or specific portion thereof, were removed for further study. RNA was prepared from isolated, homogenized tissues essentially according to the guanidinium/CsCl purification method of Chirgwin et al. (Biochemistry, […], 18, 5294), electrophoresed and transferred to nylon membranes for hybridization studies (Northern analysis) according to methods well known in the art. In order to detect mouse ICAM-1 mRNA, a radiolabelled probe was prepared by random oligonucleotide-primed synthesis using a mouse ICAM-1 clone as a template. The blots were stripped and reprobed with a ^32P-labeled glyceraldehyde 3-phosphate dehydrogenase (G3PDH) probe (Clontech Laboratories, Inc., Palo Alto, Calif.) in order to confirm equal loading of RNA and to allow the levels of ICAM-1 transcripts to be normalized with regard to the G3PDH signals. Hybridizing bands were visualized by exposure to X-OMAT AR film and quantitated using a PHOSPHORIMAGER™ essentially according to the manufacturer's instructions (Molecular Dynamics, Sunnyvale, Calif.).

ICAM-1 protein = settings: LPS-induced livers, HRP-conjugated secondary antibodies

GAG-CCG-CTA-CTC-GAA-TGA-GC (GAGCCGCTACTCGAATGAGC; all phosphorothioate, sugars by position and methylation of C not given here) [ISIS 5990]
MDR1 mRNA Level (arbitrary units) (MDR1 mRNA): 443,478 arbitrary units
% Control (MDR1 mRNA) (MDR1 mRNA): 94%

GTT-CAC-TGG-CGC-TTT-GTT-CC (GTTCACTGGCGCTTTGTTCC; all phosphorothioate, sugars by position and methylation of C not given here) [ISIS 5998]
effect on MDR1 mRNA expression (MDR1 mRNA; parent phosphorothioate, Example 9(B)): unpromising effect on MDR1 mRNA expression

CGG-TCC-CCT-TCA-AGA-TCC-AT (CGGTCCCCTTCAAGATCCAT; all phosphorothioate, sugars by position and methylation of C not given here) [ISIS 10440]
reduction of P-glycoprotein (Western assays) (P-glycoprotein): about 50%

5′-TCC-AGG-TGT-CCG-CAT-C-3′ (antisense TCCAGGTGTCCGCATC; 5' cholic acid conjugate, chemistry not fully specified) [Oligomer 36, 5′-terminus cholic acid conjugate, phosphodiester]
Tm DNA (complementary DNA): 63.4 degrees centigrade
Tm RNA (complementary RNA): 62.4 degrees centigrade

5′-TCC-AGG-TGT-CCG-CAT-C-3′ (antisense TCCAGGTGTCCGCATC; phosphodiester, phosphorothioate or 5'-aminolink variants, which one is not given here, further chemistry not given here) [Oligomer 37]
Tm DNA (complementary DNA; listed as 37): 56.3 degrees centigrade
Tm RNA (complementary RNA; listed as 37): 55.8 degrees centigrade

5′-TCC-AGG-TGT-CCG-CAT-C-3′ (antisense TCCAGGTGTCCGCATC; phosphodiester, phosphorothioate or 5'-aminolink variants, which one is not given here, further chemistry not given here) [Oligomer 33, reference compound]
Tm DNA (complementary DNA; listed as 33): 55.4 degrees centigrade
Tm RNA (complementary RNA; listed as 33): 54.9 degrees centigrade

5′-GCC-TTT-CGC-GAC-CCA-ACA-CU [Oligomer 50, reference compound]
half life [1]: 1.0 h

5′-GCC-TTT-CGC-GAC-CCA-ACA-CU* [Oligomer 51]
half life [1]: 3.5 h

5′-TCC-AGG-TGT-CCG-CAT-C-3′ (antisense TCCAGGTGTCCGCATC; phosphodiester, phosphorothioate or 5'-aminolink variants, which one is not given here, further chemistry not given here) [Oligomer 32, parent 5-LO antisense compound, normal phosphodiester linkages, reference compound]
Tm DNA (complementary DNA; listed as 32): 62.6 degrees centigrade
Tm RNA (complementary RNA; listed as 32): 62.0 degrees centigrade

CTC-CCG-CAC-ATC-TCC-GCG-CC (CTCCCGCACATCTCCGCGCC; all phosphorothioate, sugars by position and methylation of C not given here) [ISIS 10222, reference compound]
MDR1 mRNA Level (arbitrary units) (MDR1 mRNA): 406,522 arbitrary units
% Control (MDR1 mRNA) (MDR1 mRNA): 86%

5′-GCG-TTG-CTC-TTC-TTC-TTG-CG [ISIS 13293, reference compound]
reduction of hepatic ICAM-1 mRNA relative to LPS without oligonucleotide (mouse ICAM-1 mRNA): no apparent effect
ICAM-1 staining of liver sections (ICAM-1 protein): appear quite dark

Source: US20040142899A1, “Compositions and methods for enhanced biostability and altered biodistribution of oligonucleotides in mammals” (ISIS Pharmaceuticals, Inc., priority 1990, published 2004)
